Results reported in patent publication US20200017496A1 (priority 2017, published 2020).
Where two headings read alike, the source gives them in different places.

Tests used:
Assay in all cases: MIC of compounds alone and combined with antibacterials, broth microdilution (CLSI)
Format in all cases: cell-based
[1] = test system: Providencia rettgeri (PRE) isolates
Procedure, shortened: (§1)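 Inoculum 5·10^5 CFU/mL (final), log phase, ca-MHB; 16-20 h, 35° C, ambient air. MIC = lowest conc. with no visible growth; ATB MIC read at each compound level.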

[2] = test system: Salmonella typhimurium (STY) isolates; settings: for MIC ATB in combination: STY S3371; for MIC: Salmonella enterica, TYPHIMURIUM, strain STY S3371 (OXA-1)
Procedure, shortened: as §1

[3] = test system: Serratia marcescens (SMA) isolates; settings: for MIC: Serratia marcescens, read-out: MIC
Procedure, shortened: as §1

[4] = test system: Enterobacter cloacae (ECL) isolates
Procedure, shortened: as §1

`C=CC1=C(C(=O)O)N2C(=O)[C@@H](NC(=O)/C(=N\OCC(=O)O)c3csc(N)n3)[C@H]2SC1` [FIX, Cefixime] was tested, and the MIC ([1]; ATB combined with CLA @ 4 μg/ml, strain PRE UFR236 (TEM-1, OXA-48)) was 32 µg/mL, the “MIC ATB in combination” value ([1]; PRE UFR99, AF1 @ 4 μg/mL) was >128 µg/mL and the “MIC ATB in combination” value ([1]; PRE UFR99, AF1 @ 8 μg/mL) was >128 µg/mL. The MIC ([1]; Providencia rettgeri, strain PRE UFR99 (OXA-1, OXA-181), ATB alone) was > 128 µg/mL, the MIC ([1]; Providencia rettgeri, strain PRE UFR99 (OXA-1, OXA-181), CLA @ 4 μg/ml+ ATB) was > 128 µg/mL and the MIC ([1]; Providencia rettgeri, ATB alone, strain PRE UFR236 (TEM-1, OXA-48), read-out: MIC) was 32 µg/mL. The “MIC ATB in combination” value ([1]; strain PRE UFR236, antibacterial combined with AF1 @ 4 μg/mL) was 1 µg/mL, the “MIC ATB in combination” value ([1]; strain PRE UFR236, antibacterial combined with AF1 @ 8 μg/mL) was 0.5 µg/mL and the “MIC ATB in combination” value ([2]; AF1 @ 4 μg/mL) was “<=0.25 μg/mL”. The “MIC ATB in combination” value ([2]; AF1 @ 8 μg/mL) was “<=0.25 μg/mL”, the MIC ([2]; ATB alone) was ≤ 0.25 µg/mL and the MIC ([2]; CLA @ 4 μg/ml+ ATB) was ≤ 0.25 µg/mL. For the same compound, the “MIC ATB in combination” value ([3]; SMA UFR30, AF1 @ 4 μg/mL) was “<=0.25 μg/mL”, the “MIC ATB in combination” value ([3]; SMA UFR30, AF1 @ 8 μg/mL) was “<=0.25 μg/mL” and the “MIC ATB in combination” value ([3]; SMA UFR134, AF1 @ 4 μg/mL) was 1 µg/mL. For the same compound, the “MIC ATB in combination” value ([3]; SMA UFR134, AF1 @ 8 μg/mL) was 1 µg/mL, the “MIC ATB in combination” value ([3]; SMA UFR135, AF1 @ 4 μg/mL) was 2 µg/mL and the “MIC ATB in combination” value ([3]; SMA UFR135, AF1 @ 8 μg/mL) was 2 µg/mL. The “MIC ATB in combination” value ([3]; SMA UFR136, AF1 @ 4 μg/mL) was 4 µg/mL, the “MIC ATB in combination” value ([3]; SMA UFR136, AF1 @ 8 μg/mL) was 2 µg/mL and the “MIC ATB in combination” value ([3]; SMA UFR137, AF1 @ 4 μg/mL) was “<=0.25 μg/mL”. The “MIC ATB in combination” value ([3]; SMA UFR137, AF1 @ 8 μg/mL) was “<=0.25 μg/mL”, the “MIC ATB in combination” value ([3]; SMA UFR138, AF1 @ 4 μg/mL) was “<=0.25 μg/mL” and the “MIC ATB in combination” value ([3]; SMA UFR138, AF1 @ 8 μg/mL) was “<=0.25 μg/mL”. The “MIC ATB in combination” value ([3]; SMA UFR139, AF1 @ 4 μg/mL) was 0.5 µg/mL, the “MIC ATB in combination” value ([3]; SMA UFR139, AF1 @ 8 μg/mL) was “<=0.25 μg/mL” and the “MIC ATB in combination” value ([3]; SMA UFR141, AF1 @ 4 μg/mL) was 0.5 µg/mL. The “MIC ATB in combination” value ([3]; SMA UFR141, AF1 @ 8 μg/mL) was 0.5 µg/mL, the “MIC ATB in combination” value ([3]; SMA UFR142, AF1 @ 4 μg/mL) was 2 µg/mL and the “MIC ATB in combination” value ([3]; SMA UFR142, AF1 @ 8 μg/mL) was 1 µg/mL. The “MIC ATB in combination” value ([3]; SMA UFR143, AF1 @ 4 μg/mL) was 0.25 µg/mL, the “MIC ATB in combination” value ([3]; SMA UFR143, AF1 @ 8 μg/mL) was 0.25 µg/mL and the “MIC ATB in combination” value ([3]; SMA UFR239, AF1 @ 4 μg/mL) was 0.5 µg/mL. For the same compound, the “MIC ATB in combination” value ([3]; SMA UFR239, AF1 @ 8 μg/mL) was 0.5 µg/mL, the MIC ([3]; ATB alone, strain SMA UFR238 (OXA-48)) was 1 µg/mL and the MIC ([3]; ATB combined with CLA @ 4 μg/ml, strain SMA UFR238 (OXA-48)) was 2 µg/mL. For the same compound, the MIC ([3]; SMA UFR143, alone) was 512 µg/mL, the MIC ([3]; strain SMA UFR30 (OXA-405), ATB alone) was 1 µg/mL and the MIC ([3]; strain SMA UFR30 (OXA-405), CLA @ 4 μg/ml+ ATB) was 1 µg/mL. For the same compound, the MIC ([3]; strain SMA UFR134 (TEM-1, BES-1), ATB alone) was > 128 µg/mL, the MIC ([3]; strain SMA UFR134 (TEM-1, BES-1), CLA @ 4 μg/ml+ ATB) was 32 µg/mL and the MIC ([3]; strain SMA UFR135 (TEM-1, KPC-2), ATB alone) was 64 µg/mL. The MIC ([3]; strain SMA UFR135 (TEM-1, KPC-2), CLA @ 4 μg/ml+ ATB) was 32 µg/mL, the MIC ([3]; strain SMA UFR136 (TEM-1, SHV-12, KPC-2), ATB alone) was > 128 µg/mL and the MIC ([3]; strain SMA UFR136 (TEM-1, SHV-12, KPC-2), CLA @ 4 μg/ml+ ATB) was > 128 µg/mL. It also gave an MIC ([3]; strain SMA UFR137 (SME-1), ATB alone) of 0.5 µg/mL, an MIC ([3]; strain SMA UFR137 (SME-1), CLA @ 4 μg/ml+ ATB) of 1 µg/mL and an MIC ([3]; strain SMA UFR138 (SME-1), ATB alone) of 0.5 µg/mL. For the same compound, the MIC ([3]; strain SMA UFR138 (SME-1), CLA @ 4 μg/ml+ ATB) was 0.5 µg/mL, the MIC ([3]; strain SMA UFR139 (SME-2), ATB alone) was 1 µg/mL and the MIC ([3]; strain SMA UFR139 (SME-2), CLA @ 4 μg/ml+ ATB) was 2 µg/mL. It also gave an MIC ([3]; strain SMA UFR141 (OXA-48), ATB alone) of 2 µg/mL, an MIC ([3]; strain SMA UFR141 (OXA-48), CLA @ 4 μg/ml+ ATB) of 0.5 µg/mL and an MIC ([3]; strain SMA UFR142 (OXA-48), ATB alone) of 2 µg/mL. The MIC ([3]; strain SMA UFR142 (OXA-48), CLA @ 4 μg/ml+ ATB) was 2 µg/mL, the MIC ([3]; strain SMA UFR143 (CTX-M-15, OXA-1, OXA-48), ATB alone) was 512 µg/mL and the MIC ([3]; strain SMA UFR143 (CTX-M-15, OXA-1, OXA-48), CLA @ 4 μg/ml+ ATB) was 64 µg/mL. The MIC ([3]; strain SMA UFR239 (ESAC), ATB alone) was 2 µg/mL, the MIC ([3]; strain SMA UFR239 (ESAC), CLA @ 4 μg/ml+ ATB) was 2 µg/mL and the “MIC ATB in combination” value ([3]; strain SMA UFR238, antibacterial combined with AF1 @ 4 μg/mL) was 1 µg/mL. The “MIC ATB in combination” value ([3]; strain SMA UFR238, antibacterial combined with AF1 @ 8 μg/mL) was 0.5 µg/mL, the “MIC ATB in combination” value ([4]; ECL 2185D, AF1 @ 4 μg/mL) was >128 µg/mL and the “MIC ATB in combination” value ([4]; ECL 2185D, AF1 @ 8 μg/mL) was 64 µg/mL. The “MIC ATB in combination” value ([4]; ECL 190310, AF1 @ 4 μg/mL) was 64 µg/mL, the “MIC ATB in combination” value ([4]; ECL 190310, AF1 @ 8 μg/mL) was 32 µg/mL and the “MIC ATB in combination” value ([4]; ECL 190408, AF1 @ 4 μg/mL) was 0.5 µg/mL. The “MIC ATB in combination” value ([4]; ECL 190408, AF1 @ 8 μg/mL) was 0.25 µg/mL, the “MIC ATB in combination” value ([4]; ECL 200138, AF1 @ 4 μg/mL) was 64 µg/mL and the “MIC ATB in combination” value ([4]; ECL 200138, AF1 @ 8 μg/mL) was 16 µg/mL. For the same compound, the “MIC ATB in combination” value ([4]; ECL 200322, AF1 @ 4 μg/mL) was 0.5 µg/mL, the “MIC ATB in combination” value ([4]; ECL 200322, AF1 @ 8 μg/mL) was 0.25 µg/mL and the “MIC ATB in combination” value ([4]; ECL 260033, AF1 @ 4 μg/mL) was >128 µg/mL. The “MIC ATB in combination” value ([4]; ECL 260033, AF1 @ 8 μg/mL) was 2 µg/mL, the “MIC ATB in combination” value ([4]; ECL 260253, AF1 @ 4 μg/mL) was 8 µg/mL and the “MIC ATB in combination” value ([4]; ECL 260253, AF1 @ 8 μg/mL) was 8 µg/mL. The “MIC ATB in combination” value ([4]; ECL 260323, AF1 @ 4 μg/mL) was 64 µg/mL, the “MIC ATB in combination” value ([4]; ECL 260323, AF1 @ 8 μg/mL) was 32 µg/mL and the “MIC ATB in combination” value ([4]; ECL 260508, AF1 @ 4 μg/mL) was “<=0.25 μg/mL”. For the same compound, the “MIC ATB in combination” value ([4]; ECL 260508, AF1 @ 8 μg/mL) was “<=0.25 μg/mL”, the “MIC ATB in combination” value ([4]; ECL NEM146383, AF1 @ 4 μg/mL) was 32 µg/mL and the “MIC ATB in combination” value ([4]; ECL NEM146383, AF1 @ 8 μg/mL) was 16 µg/mL. The “MIC ATB in combination” value ([4]; ECL P99, AF1 @ 4 μg/mL) was 16 µg/mL, the “MIC ATB in combination” value ([4]; ECL P99, AF1 @ 8 μg/mL) was 1 µg/mL and the “MIC ATB in combination” value ([4]; ECL UFR12, AF1 @ 4 μg/mL) was “<=0.25 μg/mL”. For the same compound, the “MIC ATB in combination” value ([4]; ECL UFR12, AF1 @ 8 μg/mL) was “<=0.25 μg/mL”, the “MIC ATB in combination” value ([4]; ECL UFR13, AF1 @ 4 μg/mL) was 8 µg/mL and the “MIC ATB in combination” value ([4]; ECL UFR13, AF1 @ 8 μg/mL) was 8 µg/mL. The “MIC ATB in combination” value ([4]; ECL UFR14, AF1 @ 4 μg/mL) was 16 µg/mL, the “MIC ATB in combination” value ([4]; ECL UFR14, AF1 @ 8 μg/mL) was 8 µg/mL and the “MIC ATB in combination” value ([4]; ECL UFR60, AF1 @ 4 μg/mL) was 4 µg/mL. The “MIC ATB in combination” value ([4]; ECL UFR60, AF1 @ 8 μg/mL) was 4 µg/mL and the “MIC ATB in combination” value ([4]; ECL UFR70, AF1 @ 4 μg/mL) was 16 µg/mL.
